In the NIST ThermoML archive (doi:10.1016/j.jct.2016.06.016):

Test: xn = mol fraction of the nth substance listed
Settings: 100 kPa, Liquid; for viscosity: Concentric cylinders viscometry; for mass density: Vibrating tube method

CCOC(=O)CCC(=O)OCC [diethyl butanedioate] + CCCCCCO
Settings	mass density [kg/m3]	viscosity [mPa·s]
288.15 K, x1 = 0.0999	849.53	4.539
288.15 K, x1 = 0.2	875.7	3.729
288.15 K, x1 = 0.3001	900.45	3.285
288.15 K, x1 = 0.4	923.97	3.019
288.15 K, x1 = 0.4999	946.39	2.869
288.15 K, x1 = 0.6	967.72	2.789
288.15 K, x1 = 0.7002	988.27	2.788
288.15 K, x1 = 0.7999	1007.86	2.856
288.15 K, x1 = 0.9	1026.75	2.954
288.15 K, x1 = 1	1044.83	3.195
293.15 K, x1 = 0.0999	845.73	3.876
293.15 K, x1 = 0.2	871.67	3.213
293.15 K, x1 = 0.3001	896.23	2.842
293.15 K, x1 = 0.4	919.56	2.62
293.15 K, x1 = 0.4999	941.82	2.495
293.15 K, x1 = 0.6	963	2.432
293.15 K, x1 = 0.7002	983.42	2.435
293.15 K, x1 = 0.7999	1002.88	2.495
293.15 K, x1 = 0.9	1021.66	2.61
293.15 K, x1 = 1	1039.63	2.807
298.15 K, x1 = 0.0999	841.91	3.358
298.15 K, x1 = 0.2	867.63	2.817
298.15 K, x1 = 0.3001	891.99	2.508
298.15 K, x1 = 0.4	915.15	2.327
298.15 K, x1 = 0.4999	937.24	2.231
298.15 K, x1 = 0.6	958.28	2.18
298.15 K, x1 = 0.7002	978.57	2.188
298.15 K, x1 = 0.7999	997.91	2.24
298.15 K, x1 = 0.9	1016.57	2.337
298.15 K, x1 = 1	1034.44	2.491
303.15 K, x1 = 0.0999	838.07	2.932
303.15 K, x1 = 0.2	863.58	2.477
303.15 K, x1 = 0.3001	887.75	2.222
303.15 K, x1 = 0.4	910.73	2.071
303.15 K, x1 = 0.4999	932.67	1.99
303.15 K, x1 = 0.6	953.56	1.952
303.15 K, x1 = 0.7002	973.72	1.962
303.15 K, x1 = 0.7999	992.94	2.01
303.15 K, x1 = 0.9	1011.5	2.098
303.15 K, x1 = 1	1029.25	2.229
308.15 K, x1 = 0.0999	834.22	2.572
308.15 K, x1 = 0.2	859.52	2.193
308.15 K, x1 = 0.3001	883.49	1.98
308.15 K, x1 = 0.4	906.3	1.854
308.15 K, x1 = 0.4999	928.09	1.788
308.15 K, x1 = 0.6	948.84	1.759
308.15 K, x1 = 0.7002	968.87	1.77
308.15 K, x1 = 0.7999	987.97	1.816
308.15 K, x1 = 0.9	1006.42	1.893
308.15 K, x1 = 1	1024.08	2.008
313.15 K, x1 = 0.0999	830.34	2.276
313.15 K, x1 = 0.2	855.43	1.961
313.15 K, x1 = 0.3001	879.22	1.783
313.15 K, x1 = 0.4	901.87	1.679
313.15 K, x1 = 0.4999	923.5	1.626
313.15 K, x1 = 0.6	944.11	1.604
313.15 K, x1 = 0.7002	964.01	1.617
313.15 K, x1 = 0.7999	983	1.659
313.15 K, x1 = 0.9	1001.34	1.729
313.15 K, x1 = 1	1018.9	1.821
318.15 K, x1 = 0.0999	826.44	2.013
318.15 K, x1 = 0.2	851.33	1.748
318.15 K, x1 = 0.3001	874.93	1.598
318.15 K, x1 = 0.4	897.41	1.511
318.15 K, x1 = 0.4999	918.89	1.468
318.15 K, x1 = 0.6	939.37	1.452
318.15 K, x1 = 0.7002	959.15	1.467
318.15 K, x1 = 0.7999	978.02	1.506
318.15 K, x1 = 0.9	996.26	1.57
318.15 K, x1 = 1	1013.72	1.66
323.15 K, x1 = 0.0999	822.52	1.817
323.15 K, x1 = 0.2	847.2	1.584
323.15 K, x1 = 0.3001	870.62	1.458
323.15 K, x1 = 0.4	892.94	1.386
323.15 K, x1 = 0.4999	914.27	1.344
323.15 K, x1 = 0.6	934.62	1.337
323.15 K, x1 = 0.7002	954.28	1.353
323.15 K, x1 = 0.7999	973.05	1.391
323.15 K, x1 = 0.9	991.18	1.448
323.15 K, x1 = 1	1008.55	1.523
